According to publication PMC8036666, “Biological and Physico-Chemical Characteristics of Arginine-Rich Peptide Gemini Surfactants with Lysine and Cystine Spacers” (International Journal of Molecular Sciences, 2021):
Converted amounts (≈) assume the structure as drawn. “And” between values parts separate entries of the source, which are not always exact repeats. Equal values may be shown once. Read-outs that look alike come from different tables or passages of the source. Where a SMILES comes first, the peptide text is derived from it. Bridges are numbered along the chain shown (N, C = ends). Roman numbers before positions name the chains, in order. Side-chain parts run from the residue outwards. [ ]: non-standard residue; d: D form. The star is where a group is joined. Myristoyl = CCCCCCCCCCCCCC(=O)*; Lauroyl = CCCCCCCCCCCC(=O)*; Nle = CCCC[C@H](N)C(=O)O; Octanoyl = CCCCCCCC(=O)*

Tests used:
[1] = system: Enterococcus faecium ATCC 700221; type: cell-based
Summary of the method: (§1)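 MBEC, resazurin read-out (A570/A600): lowest concentration giving ≤10 ± 0.5% dye reduction relative to positive (100%) and negative (0%) controls. Preformed 24 h biofilms, MHB, inoculum 5.0 × 10^5 CFU/mL; compounds 1–512 μg/mL, 24 h, 37 °C. Triplicate.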

[2] = system: Klebsiella aerogenes ATCC 13048; type: cell-based
Summary of the method: as §1

[3] = system: Pseudomonas aeruginosa ATCC 9027; type: cell-based
Summary of the method: as §1

[4] = system: Staphylococcus aureus ATCC 25923; type: cell-based
Summary of the method: as §1

[5] = system: Candida albicans ATCC 10231; type: cell-based
[6] = system: Candida glabrata ATCC 15126; type: cell-based
[7] = system: Klebsiella pneumoniae ATCC 700603; type: cell-based
Summary of the method: as §1

[8] = Critical aggregation concentration by surface tension (Du Noüy ring, K100 tensiometer); type: physicochemical; details: for CAC / Surface Tension at CAC: unbuffered aqueous solution, 298 K
Method: The identity of the purified peptides was confirmed with electrospray ionization mass spectrometry (ESI-MS) in positive ion mode. Results of MS analyses and net charge are attached in Supplementary Materials (Table S1). Peptides’ hydrophobicity was evaluated by analytical reversed-phase high-performance liquid chromatography (RP-HPLC). The critical aggregation concentrations (CACs) of the lipopeptides were determined in unbuffered aqueous solution at 298 K by measuring the surface tension as a function of lipopeptide concentration. The measurements were carried out by the Du Noüy ring method on a K100 tensiometer. The surface tension data were plotted against the logarithm of lipopeptide concentration. CAC was found as the intersection of two lines being linear regression of data below and above CAC.
The critical aggregation concentration (CAC) values were determined fully automatically using a K100 tensiometer (KRUSS, Hamburg, Germany) equipped with two micro dosimeters by measuring the surface tension vs. lipopeptide concentration. The measurements were performed in unbuffered aqueous solution at 298 K using the Du Noüy ring method. The accuracy of the surface tension measurements was 0.1 mN/m. The critical aggregation concentration (CAC) was defined as the intersection of two lines fitted to the experimental data collected before and after the inflection point.

HaCaT cells = type: cell-based, human; details: 24 h
Method: Cells were trypsinized, and the medium was renewed 2–3 times per week. The cytotoxicity of compounds was assessed by the determination of cell metabolic activity by colorimetric CellTilter 96® Aqueous One Solution Cell Proliferation Assay (Promega, Madison, WI, USA), according to the manufacturer’s instructions. […] Every compound was medium-soluble in 37 °C; thus, the control cells were cultured with the medium. Serial dilutions of the tested compounds were always prepared prior to use. Cells were incubated with drugs for 24 h, and then, 20 μL of the CellTiter 96®AqueousOne Solution Reagent was added to each well containing cells maintained in 100 μL of culture medium.

[9] = system: human red blood cells (hRBCs); assay: Hemolysis assay; type: cell-based; details: 1 h
Method: The hemolysis assay was performed by using the method reported previously. Fresh human red blood cells (hRBCs) with anticoagulant (EDTA) were rinsed three times with a PBS by centrifugation at 800× g for 10 min and diluted with PBS. The compounds were serially diluted on a 96-well microtiter polystyrene plate, and hRBCs were added up to a final volume of 100 μL. The compound concentration ranged between 0.5 and 256 μg/mL and the final hRBCs concentration was 4% (v/v). Controls for zero (blank) and 100% hemolysis consisted of hRBCs suspended in PBS and 1% of Triton-X 100 (Carl Roth GmbH, Karlsruhe, Germany), respectively. The plate was incubated for 1 h at 37 °C and then centrifuged (800× g, 10 min, 4 °C). Subsequently, the supernatant was […] to new microtiter plates, and the absorbance at 540 nm was measured (Multiskan GO Microplate Spectrophotometer, Thermo Fisher Scientific, Vantaa, Finland). All experiments were conducted in triplicate. HC50 was calculated using an ic50.tk tool. The protocol of the study was approved by the local Bioethics Committee at the Medical University of Gdańsk (NKBBN/262/2019, approval date: 10 June 2019).

Row | Compound | MBEC Enterococcus faecium ATCC 700221 ([1]; ATCC 700221, 24 h) | MBEC Klebsiella aerogenes ATCC 13048 ([2]; ATCC 13048, 24 h) | MBEC Pseudomonas aeruginosa ATCC 9027 ([3]; ATCC 9027, 24 h) | MBEC Staphylococcus aureus ATCC 25923 ([4]; ATCC 25923, 24 h) | MBEC Candida albicans ATCC 10231 ([5]; ATCC 10231, 24 h) | MBEC Candida glabrata ATCC 15126 ([6]; ATCC 15126, 24 h) | MBEC Klebsiella pneumoniae ATCC 700603 ([7]; ATCC 700603, 24 h) | CAC [8] | Surface Tension at CAC [8] | IC50 (HaCaT cells) | HC50 ([9]; red cells of human) | other results
1 | CCCCCCCC(=O)N[C@@H](CCCC)C(=O)N[C@@H](CCCNC(=N)N)C(=O)N[C@@H](CCCNC(=N)N)C(=O)NCCCC[C@H](NC(=O)[C@H](CCCNC(=N)N)NC(=O)[C@H](CCCNC(=N)N)NC(=O)[C@H](CCCC)NC(=O)CCCCCCC)C(N)=O [Compound B6] (Octanoyl-[Nle]RRK([Arg-Arg-Nle-Octanoyl])-NH2) | 8 µg/mL | 256 µg/mL | 256 µg/mL | 16 µg/mL | 256 µg/mL | 512 µg/mL | 256 µg/mL | 3.59 mM and 4482.4 μg/mL | 37 mN/m | 164.17 ± 14.65 µg/mL (≈ 131 µM) | >256 µg/mL | 
2 | CCCCCCCC(=O)N[C@@H](CCCC)C(=O)N[C@@H](CCCNC(=N)N)C(=O)N[C@@H](CCCNC(=N)N)C(=O)N[C@@H](CSSC[C@H](NC(=O)[C@H](CCCNC(=N)N)NC(=O)[C@H](CCCNC(=N)N)NC(=O)[C@H](CCCC)NC(=O)CCCCCCC)C(N)=O)C(N)=O [Compound C6] (I: Octanoyl-[Nle]RRC-NH2 / II: Octanoyl-[Nle]RRC-NH2; disulfide I:4-II:4) | 8 µg/mL | 256 µg/mL | 512 µg/mL | 32 µg/mL | 256 µg/mL | 512 µg/mL | 256 µg/mL | 4.28 mM and 5737.7 μg/mL | 35 mN/m | 248.83 ± 18.81 µg/mL (≈ 185 µM) | >256 µg/mL | 
3 | CCCCCCCCCCCCCC(=O)N[C@@H](CCCNC(=N)N)C(=O)N[C@@H](CCCNC(=N)N)C(=O)N[C@@H](CSSC[C@H](NC(=O)[C@H](CCCNC(=N)N)NC(=O)[C@H](CCCNC(=N)N)NC(=O)CCCCCCCCCCCCC)C(N)=O)C(N)=O [Compound C4] (I: Myristoyl-Arg-Arg-Cys-NH2 / II: Myristoyl-Arg-Arg-Cys-NH2; disulfide I:3-II:3) | 64 µg/mL | 512 µg/mL | >512 µg/mL | 512 µg/mL | 16 µg/mL | 64 µg/mL | 512 µg/mL | 0.06 mM and 71.1 μg/mL | 47 mN/m | 54.52 ± 15.40 µg/mL (≈ 42.5 µM) | 20.89 ± 1.06 µg/mL | 
4 | CCCCCCCC(=O)N[C@@H](Cc1ccccc1)C(=O)N[C@@H](CCCNC(=N)N)C(=O)N[C@@H](CCCNC(=N)N)C(=O)N[C@@H](CSSC[C@H](NC(=O)[C@H](CCCNC(=N)N)NC(=O)[C@H](CCCNC(=N)N)NC(=O)[C@H](Cc1ccccc1)NC(=O)CCCCCCC)C(N)=O)C(N)=O [Compound C5] (I: Octanoyl-FRRC-NH2 / II: Octanoyl-FRRC-NH2; disulfide I:4-II:4) |  |  |  |  |  |  |  | 2.58 mM and 3632.7 μg/mL | 37 mN/m |  |  | MBEC Enterococcus faecium ATCC 700221 ([1]; 24 h biofilm on polystyrene): 8 µg/mL; MBEC Klebsiella aerogenes ATCC 13048 ([2]; 24 h biofilm on polystyrene): 256 µg/mL; MBEC Pseudomonas aeruginosa ATCC 9027 ([3]; 24 h biofilm on polystyrene): 512 µg/mL; MBEC Staphylococcus aureus ATCC 25923 ([4]; 24 h biofilm on polystyrene): 64 µg/mL; MBEC Candida albicans ATCC 10231 ([5]; 24 h biofilm on polystyrene): 128 µg/mL; MBEC Candida glabrata ATCC 15126 ([6]; 24 h biofilm on polystyrene): 256 µg/mL; MBEC Klebsiella pneumoniae ATCC 700603 ([7]; 24 h biofilm on polystyrene): 256 µg/mL; IC50 (HaCaT cells; HaCaT, MTS): 146.63 ± 14.95 µg/mL (≈ 104 µM); HC50 ([9]; hRBCs 4% (v/v), 37 °C): 117.06 ± 4.60 µg/mL
5 | CCCCCCCC(=O)N[C@@H](Cc1ccccc1)C(=O)N[C@@H](CCCNC(=N)N)C(=O)N[C@@H](CCCNC(=N)N)C(=O)NCCCC[C@H](NC(=O)[C@H](CCCNC(=N)N)NC(=O)[C@H](CCCNC(=N)N)NC(=O)[C@H](Cc1ccccc1)NC(=O)CCCCCCC)C(N)=O [Compound B5] (Octanoyl-FRRK([Arg-Arg-Phe-Octanoyl])-NH2) | 8 µg/mL | 256 µg/mL | 512 µg/mL | 16 µg/mL | 32 µg/mL | 256 µg/mL | 256 µg/mL | 2.47 mM and 3247.9 μg/mL | 39 mN/m | 169.13 ± 32.80 µg/mL (≈ 128 µM) | 181.38 ± 8.99 µg/mL | 
6 | CCCCCCC(CCCC)C(=O)N[C@@H](CCCNC(=N)N)C(=O)N[C@@H](CCCNC(=N)N)C(=O)N[C@@H](CSSC[C@H](NC(=O)[C@H](CCCNC(=N)N)NC(=O)[C@H](CCCNC(=N)N)NC(=O)C(CCCC)CCCCCC)C(N)=O)C(N)=O (stereo partly drawn) [Compound C7] | 4 µg/mL | 128 µg/mL | 512 µg/mL | 32 µg/mL | 64 µg/mL | 128 µg/mL | 256 µg/mL | 6.21 mM and 7628.1 μg/mL | 35 mN/m | 163.98 ± 13.66 µg/mL (≈ 134 µM) | >256 µg/mL | increase in the CAC value by branching of the acyl chains ([8]; C7 compared with C3): ca. 25 fold
7 | CCCCCCCCCCCC(=O)N[C@@H](CCCNC(=N)N)C(=O)N[C@@H](CCCNC(=N)N)C(=O)N[C@@H](CSSC[C@H](NC(=O)[C@H](CCCNC(=N)N)NC(=O)[C@H](CCCNC(=N)N)NC(=O)CCCCCCCCCCC)C(N)=O)C(N)=O [Compound C3] (I: Lauroyl-Arg-Arg-Cys-NH2 / II: Lauroyl-Arg-Arg-Cys-NH2; disulfide I:3-II:3) | 16 µg/mL | 256 µg/mL | 512 µg/mL | 128 µg/mL | 16 µg/mL | 128 µg/mL | 256 µg/mL | 0.25 mM and 305.4 μg/mL | 43 mN/m | 119.47 ± 6.03 µg/mL (≈ 97.3 µM) | 36.24 ± 2.35 µg/mL | 
